# Measurements from patent EP1105728B1, “MODULATING MULTIPLE LINEAGE KINASE PROTEINS” (CEPHALON, INC., priority 1998, dated 2000).
# Columns and labels:
# [1] = system: substantia nigra tyrosine hydroxylase immunoreactive neurons; assay: MPTP model: substantia nigra tyrosine hydroxylase immunoreactive neurons; assay type: in vivo, mice; details: MPTP 40 mg/kg; systemically administered (Fig. 22a)
# Method: (§1) MPTP was administered at a dose (40 mg/kg) that produces loss of striatal dopaminergic terminals and cell bodies in the substantia nigra. Tyrosine hydroxylase was used as a marker for dopamenergic nerve terminals in the substantia nigra. […] Since Compound III-3 is a known inhibitor of MLK3, activation of a downstream substrate of MLK3 was measured in MPTP- treated mice. Levels of phosphorylated MKK4 were measured using a phospho-MKK4 specific antibody (New England Biolabs, Beverly, MA) that recognizes the monophosphorylated form of MKK4 by either immunoblot (Fig. 22b) or ELISA (Fig. 22c). MPTP administration elevated levels of phosphorylated MKK4 in the substantia nigra by up to 5 fold over control levels (Fig. 22b). Peak elevations occurred 4 hrs after administration ofMPTP and coincided with peak CNS levels of MPP^+.
# SNB motor neurons = assay: Developmentally regulated motor neuronal death in the neonatal rat (SNB); assay type: in vivo
# Method: Untimed pregnant Sprague-Dawley rats were obtained from Harlan Laboratories (Indianapolis, IN). Female rat pups were injected daily, subcutaneously (SC), over the target perineal muscles, with Compound III-3 in 5% Solutol ™ HS 15 or vehicle along starting on the day of birth (P1) and continuing for 5 days (P5). On P10 or P60, pups were decapitated, blood was collected in heparinized capillary tubes, and the region of the spinal cord containing the sexually dimorphic spinal nucleus of the bulbocavemosus (SNB) and the perineal area containing the bulbocavernosus (BC) and levator ani (LA) muscles were dissected after perfusion of the animals with saline/formalin. The region of the spinal cord containing the SNB was postfixed, embedded in Paraplast, sectioned at 10µm, and stained with Cresylecht violet (Nordeen, et al., Science, 1985, 229, 671-673, which is incorporated herein by reference in its entirety). Motor neurons were counted at X500 in serial sections from the lumbar 5 to the sacral 1 region of the spinal cord as described previously (Nordeen, et al., supra). The microscopic enumeration was made on coded sections by an observer blinded to the treatment groups. Motor neuron counts were corrected for cell size and section thickness (Konisgsmark, Contemporary Research Methods in Neuroanatomy, Nauta & Ebbesson, Eds., 1970, Springer-Verlag, New York, pp.315-340, which is incorporated herein by reference in its entirety) and statistical analysis was by one-way analysis ofvariance (ANOVA). Perineal musculature was postfixed, decalcified, embedded in Paraplast, sectioned at I 0µm and stained with Milligan's Trichrome. […] The outline of muscle tissue was traced from alternate sections using a projection microscope (62.5), and the cross-sectional area was measured using a digitizing pad and a computer-based morphometry system (Sigmascan, Jandel Scientific). Muscle volume was calculated by talking the total cross-sectional area and multiplying it by the section thickness, and corrected for the percentage of the structure sampled.
# JNK = JNK activity immunoprecipitated from THP-1 cells; assay type: cell-based; details: Homo sapiens, read-out: THP-1 Cells JNK % inh. 500 nM
# Method: Assays for JNK activity were performed after immunoprecipitating the JNK protein from an extract of lysed THP-1 cells. Pelleted THP-1 cells were lysed on ice for 15 min in 500 µl of Frac buffer (10 mM Tris-Hcl, pH 7.5,50 mM NaCl, 30 µM sodium pyrophosphate, 1 mg/ml BSA, 1% Triton-X-100). The extract was centrifuged for 10 min at 14K and 5 µl of JNK antibody (Santa Cruz) was added to the supernatant. The extract was rotated for 60 min at 4°C, 75 µl of washed protein A Sepharose (20% w/v in Frac) added and the extract rotated another 30 min to bind the antibody complex to the protein A Sepharose. The protein A Sepharose was washed twice with Frac buffer, once with 20 mM Hepes, pH 7.6, 20 mM MgCl2, 2 mM DTT, then incubated for 15 min at 30° C in 30 µl of kinase buffer (20 mM hepes, 20 mM MgCl2, 2 MM DTT, 1 µg recombinant c-jun, and 2 µM ATP-γ-^32P, 2 µCi. The reaction was terminated by the addition of 10 µl of 4X SDS gel loading buffer, heated for 3 min at 80° C, and the proteins were analyzed on a 10% SDS gel. The gel was dried, exposed to a Phosphorimager plate, and the radioactive bands were analyzed on a Phosphorimager.
# trkA tyrosine kinase = trkA tyrosine kinase (Homo sapiens, UniProt P04629); details: Maroney et al.; Kaneko et al.; cited from earlier work
# trkA tyrosine kinase, sequence (P04629 33-796): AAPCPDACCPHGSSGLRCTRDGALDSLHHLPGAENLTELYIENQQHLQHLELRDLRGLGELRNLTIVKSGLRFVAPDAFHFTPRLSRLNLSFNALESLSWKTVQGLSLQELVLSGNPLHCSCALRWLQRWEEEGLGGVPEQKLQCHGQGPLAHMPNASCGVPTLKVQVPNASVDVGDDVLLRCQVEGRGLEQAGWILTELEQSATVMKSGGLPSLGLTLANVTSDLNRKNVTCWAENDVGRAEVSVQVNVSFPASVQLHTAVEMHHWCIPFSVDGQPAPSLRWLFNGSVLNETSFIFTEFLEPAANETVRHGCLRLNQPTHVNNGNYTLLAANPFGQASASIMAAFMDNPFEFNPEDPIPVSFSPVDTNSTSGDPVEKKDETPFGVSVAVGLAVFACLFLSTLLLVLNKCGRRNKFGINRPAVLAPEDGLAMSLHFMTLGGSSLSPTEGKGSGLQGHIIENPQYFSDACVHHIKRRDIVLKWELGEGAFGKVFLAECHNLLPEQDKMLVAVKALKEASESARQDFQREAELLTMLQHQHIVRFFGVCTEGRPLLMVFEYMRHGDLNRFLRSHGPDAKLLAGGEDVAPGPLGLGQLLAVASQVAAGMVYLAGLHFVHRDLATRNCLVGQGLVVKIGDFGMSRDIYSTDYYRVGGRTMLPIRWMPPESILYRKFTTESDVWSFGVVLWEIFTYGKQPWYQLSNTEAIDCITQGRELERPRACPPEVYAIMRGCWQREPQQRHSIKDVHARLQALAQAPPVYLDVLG
# motoneurons = assay: Survival of rat spinal cord cultures enriched for motoneurons (calcein AM); assay type: cell-based; details: data not shown
# Method: Spinal cords were dissected from Sprague-Dawley rat fetuses (Charles River Laboratories, Wilmington. MA) of embryonic age (E) 14.5-15. […] Cells were seeded onto 96-well plates previously coated with poly-1-omithine and laminin (5 ug/ml each) at a density of 6 x 10^4 cells/cm^2 in chemically defined serum-free N2 medium (Bottenstein, et al., 1979, supra). In order to separate attachment from survival effects, addition of compounds to cultures was made after an initial attachment period of 1-3 h. Neuronal survival was assessed after 4 d by using calcein AM (Molecular Probes, Eugene, OR) in a fluorometric viability assay (Bozyczko-Coyne, et al., 1993, supra). Microscopic counts of neurons correlated directly with relative fluorescence values. In brief, culture medium was serially diluted in DPBS (Dulbeccos phosphate buffered saline) and a final concentration of 6 uM calcein AM stock was then added to each 96-well. The plates were incubated for 30 min at 37°C, followed by serial dilution washes in DPBS. The fluorescent signal was read using a plate-reading fluorimeter from Millipore (Cytofluor 2350) at excitation=485 nm and emission = 538 nm. […] Linearity of the fluorescence signal was verified for the concentration and incubation time for the range of cell densities in these experiments. […]
# MEKK1 = biological target: T1, MEKK1 (Homo sapiens, UniProt Q13233); assay: JNK activity in Cos7 cells overexpressing HA-JNK1 with MEKK1; assay type: cell-based; details: 500 nM; Cos7 cells overexpressing HA-JNK1 with MEKK1 (Figure 15C)
# T1 construct: expressed in transfected cells; host or cells: Cos7
# T1 sequence (Q13233 whole entry, species assumed): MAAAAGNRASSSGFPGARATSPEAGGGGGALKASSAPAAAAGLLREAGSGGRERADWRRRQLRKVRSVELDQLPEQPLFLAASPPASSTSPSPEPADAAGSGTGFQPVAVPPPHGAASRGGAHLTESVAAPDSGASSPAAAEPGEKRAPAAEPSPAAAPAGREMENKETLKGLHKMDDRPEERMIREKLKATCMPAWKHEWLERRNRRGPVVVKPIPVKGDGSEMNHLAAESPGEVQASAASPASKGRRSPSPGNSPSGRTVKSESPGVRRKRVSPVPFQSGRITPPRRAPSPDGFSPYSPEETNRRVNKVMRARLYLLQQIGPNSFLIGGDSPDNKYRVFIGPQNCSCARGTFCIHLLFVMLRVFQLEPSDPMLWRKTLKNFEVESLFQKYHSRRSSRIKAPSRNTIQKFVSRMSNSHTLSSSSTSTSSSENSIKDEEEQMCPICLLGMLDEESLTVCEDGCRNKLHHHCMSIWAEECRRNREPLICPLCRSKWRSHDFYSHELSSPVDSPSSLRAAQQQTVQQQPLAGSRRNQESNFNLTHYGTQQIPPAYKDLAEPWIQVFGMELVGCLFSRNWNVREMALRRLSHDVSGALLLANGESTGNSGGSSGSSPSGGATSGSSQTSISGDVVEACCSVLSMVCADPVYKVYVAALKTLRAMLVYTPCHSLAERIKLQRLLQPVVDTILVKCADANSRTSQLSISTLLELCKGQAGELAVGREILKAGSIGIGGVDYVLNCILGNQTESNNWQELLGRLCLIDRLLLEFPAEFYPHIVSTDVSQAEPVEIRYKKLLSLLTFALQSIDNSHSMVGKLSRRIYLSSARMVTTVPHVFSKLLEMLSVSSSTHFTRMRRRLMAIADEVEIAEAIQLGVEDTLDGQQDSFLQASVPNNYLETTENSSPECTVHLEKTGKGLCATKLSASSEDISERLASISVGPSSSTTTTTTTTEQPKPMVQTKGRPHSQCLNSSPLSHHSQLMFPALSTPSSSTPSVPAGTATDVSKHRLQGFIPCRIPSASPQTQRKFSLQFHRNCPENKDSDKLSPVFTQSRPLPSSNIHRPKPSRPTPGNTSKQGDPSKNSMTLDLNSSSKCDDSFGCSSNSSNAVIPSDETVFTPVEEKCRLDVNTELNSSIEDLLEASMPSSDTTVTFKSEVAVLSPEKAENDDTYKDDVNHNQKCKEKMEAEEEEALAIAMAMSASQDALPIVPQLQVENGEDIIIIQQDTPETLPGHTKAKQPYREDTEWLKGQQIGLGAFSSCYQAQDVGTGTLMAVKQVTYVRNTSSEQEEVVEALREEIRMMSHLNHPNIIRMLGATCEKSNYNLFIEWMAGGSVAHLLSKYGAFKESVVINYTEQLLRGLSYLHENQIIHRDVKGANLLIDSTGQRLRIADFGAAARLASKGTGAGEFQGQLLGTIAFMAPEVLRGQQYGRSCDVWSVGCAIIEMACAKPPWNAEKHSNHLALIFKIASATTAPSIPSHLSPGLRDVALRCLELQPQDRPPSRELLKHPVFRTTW
# MKK4 = assay: MPTP model: phosphorylated MKK4 in the substantia nigra (immunoblot, ELISA); assay type: in vivo, mice; details: pretreatment; Compound III-3 1 mg/kg (Fig. 22c)
# Method: as §1
smiles,measurement,setting,value
CCSCc1ccc2c(c1)c1c3c(c4c5cc(CSCC)ccc5n5c4c1n2C1CC(O)(C(=O)OC)C5(C)O1)CNC3=O (stereo not drawn) [III-3],loss of substantia nigra tyrosine hydroxylase immunoreactive neurons after MPTP lesion,[1],attenuated the loss
same,rescued motor neurons identifiable morphologically 55 days after the last treatment,"SNB motor neurons; 0.5 and 1 mg/kg per day PN 1-5, sacrifice at PN60",100%
same,enhancement in motor-neuronal survival,"SNB motor neurons; 0.5 and 1 mg/kg per day sc, PN 1-5, female rats",70%
same,"weight loss, mortality, gross tissue damage",SNB motor neurons; SNB model,"no associated weight loss, mortality, or gross tissue damage"
same,inhibition at 0.5 µM,JNK,93%
same,inhibitory activity against trkA tyrosine kinase,trkA tyrosine kinase,did not exhibit inhibitory activity
same,potency in mediating survival in motor neuron-enriched cultures relative to K-252a,motoneurons,approximately fivefold
same,JNK pathway activated by MEKK1,MEKK1,did not interfere with the JNK pathway
same,MPTP-mediated MKK4 phosphorylation,MKK4,partially inhibited
